# Target: T1, Recombinant human GR (Homo sapiens, UniProt P04150)
# T1 construct: purchased Invitrogen P2816
# T1 sequence (P04150 1-777): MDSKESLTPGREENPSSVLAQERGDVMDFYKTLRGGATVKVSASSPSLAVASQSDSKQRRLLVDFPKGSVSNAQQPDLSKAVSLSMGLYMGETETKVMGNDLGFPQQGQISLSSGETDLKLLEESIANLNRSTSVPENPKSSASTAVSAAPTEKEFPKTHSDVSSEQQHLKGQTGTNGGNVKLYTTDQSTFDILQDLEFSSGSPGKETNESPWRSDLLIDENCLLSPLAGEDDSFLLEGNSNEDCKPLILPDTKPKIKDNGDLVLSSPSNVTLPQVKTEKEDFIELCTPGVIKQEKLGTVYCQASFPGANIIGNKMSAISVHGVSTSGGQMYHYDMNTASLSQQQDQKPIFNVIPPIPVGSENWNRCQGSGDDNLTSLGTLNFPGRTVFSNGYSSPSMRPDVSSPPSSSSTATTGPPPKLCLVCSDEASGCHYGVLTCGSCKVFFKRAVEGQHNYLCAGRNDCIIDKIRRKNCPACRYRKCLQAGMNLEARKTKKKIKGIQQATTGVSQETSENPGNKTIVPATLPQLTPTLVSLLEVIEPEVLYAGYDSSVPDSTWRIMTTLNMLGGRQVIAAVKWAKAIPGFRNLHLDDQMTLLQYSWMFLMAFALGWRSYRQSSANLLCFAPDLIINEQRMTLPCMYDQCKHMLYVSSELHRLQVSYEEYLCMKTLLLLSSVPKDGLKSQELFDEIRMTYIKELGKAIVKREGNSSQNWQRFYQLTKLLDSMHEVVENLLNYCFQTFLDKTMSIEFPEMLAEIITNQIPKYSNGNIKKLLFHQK
# Experiment: GR competitor assay by fluorescence polarization (binding activity to glucocorticoid receptor)
# Details: 20 μM test compound solution, 25 μL per well plus 12.5 μL each of 4×GS1 and 4×GR solution; Fluormone GS1 ligand; positive control 2 mM dexamethasone; read-out: GR Binding ratio (%)
# Description: 1. Evaluation Test for Binding Activity to Glucocorticoid Receptor (Hereinafter Referred to as “GR”)
# In order to evaluate a binding activity to GR, a receptor competitor assay was carried out by a fluorescence polarization method. In the assay, a GR competitor assay kit (manufactured by Invitrogen, cat No. P2816) was used, and a procedure was carried out according to the protocol attached to the kit. Hereinafter, the specific method will be described.
# GR screening buffer: A buffer containing 10 mM potassium phosphate (pH 7.4), 20 mM sodium molybdate (Na2MoO4), 0.1 mM ethylene diamine tetraacetic acid (EDTA), 5 mM dithiothreitol (DTT), 0.1 mM stabilizing peptide and 2% dimethylsulfoxide was prepared.
# 4×GS1 solution: Fluormone™ GS1, which is a fluorescent glucocorticoid ligand, was diluted with GR screening buffer, whereby a 4 nM solution was prepared.
# 4×GR solution: Recombinant human GR was diluted with GR screening buffer, whereby a 16 nM solution was prepared.
# After a test compound was dissolved in dimethylsulfoxide, the resulting solution was diluted with GR screening buffer, whereby a 20 μM test compound solution was prepared.
# 1) The test compound solution was added in an amount of 25 μL into each well of a 96-well plate, and then, 4×GS1 solution and 4×GR solution were added in an amount of 12.5 μL into each well, respectively.
# 2) The plate was incubated in a dark place at room temperature for 2 to 4 hours.
# 3) By using a multimode plate reader, Analyst™ HT (manufactured by LJL Biosystems), fluorescence polarization of each well was measured. As the blank, a well containing GR screening buffer in place of the test compound and 4×GS1 solution was used.
# 4) The same procedure as that in the above 1) to 3) was carried out except that GR screening buffer was used in place of the test compound solution, and the obtained result was taken as the negative control.
# 5) The same procedure as that in the above 1) to 3) was carried out except that 2 mM dexamethasone was used in place of the test compound solution, and the obtained result was taken as the positive control.
# A GR binding ratio (%) was calculated from the following equation.
# GR binding ratio (%)=100×[1-(fluorescence polarization of test compound solution-fluorescence polarization of positive control solution)/(fluorescence polarization of negative control solution—fluorescence polarization of positive control solution)]
row,Structure (SMILES),inhibition at 10 µM [%]
1,"COc1ccc(C(=O)OCc2c(-c3ccc(OC(=O)c4ccccc4C)cc3OC)ccc3c2NC(=O)C(C)(C)N3)cc1 [Compound 1-4, 7-[2-Methoxy-4-(2-methylbenzoyloxy)phenyl]-8-(4-methoxybenzoyloxymethyl)-3,3-dimethyl-3,4-dihydro-1H-quinoxalin-2-one]",91
2,COc1ccc(F)cc1-c1ccc2c(c1COC(=O)c1ccc(C)cc1)NC(=O)C(C)(C)N2 [Compound 2-2],99
3,COc1cc(F)ccc1-c1ccc2c(c1COC(=O)c1ccc(C)s1)N(C)C(=O)C(C)(C)N2 [Compound 2-9],99
4,COc1cc(F)ccc1-c1ccc2c(c1COC(=O)c1ccc(Br)s1)N(C)C(=O)C(C)(C)N2 [Compound 2-16],100
5,COc1cc(F)ccc1-c1ccc2c(c1COc1cc([N+](=O)[O-])ccc1C)N(C)C(=O)C(C)(C)N2 [Compound 3-7],100
6,COc1ccc(Cl)cc1-c1ccc2c(c1COc1ccccc1CCO)N(C)C(=O)C(C)(C)N2 [Compound 3-10],100
7,COc1cc(F)ccc1-c1ccc2c(c1COc1cc(Cl)ccc1C)N(C)C(=O)C(C)(C)N2 [Compound 3-15],100
8,COc1ccc([N+](=O)[O-])cc1OCc1c(-c2ccc(F)cc2OC)ccc2c1N(C)C(=O)C(C)(C)N2 [Compound 3-16],100
9,C=CCc1ccccc1OCc1c(-c2ccc(F)cc2OC)ccc2c1N(C)C(=O)C(C)(C)N2 [Compound 3-17],100
10,COc1ccc(C)cc1NCc1c(-c2ccc(F)cc2OC)ccc2c1N(C)C(=O)C(C)(C)N2 [Compound 4-5],100
11,COc1ccc(Cl)cc1-c1ccc2c(c1CNc1cc(F)ccc1C)N(C)C(=O)C(C)(C)N2 [Compound 4-7],100
12,COc1ccc(Cl)cc1-c1ccc2c(c1CNc1ccccc1C(C)C)N(C)C(=O)C(C)(C)N2 [Compound 4-10],100
13,COc1ccccc1NCc1c(-c2ccc(F)cc2OC)ccc2c1N(C)C(=O)C(C)(C)N2 [Compound 4-11],100
14,"COc1ccc(F)cc1-c1ccc2c(c1COC(=O)c1ccccc1)N(C)C(=O)C(C)(C)N2 [Compound 5-1, 8-Benzoyloxymethyl7-(5-fluoro-2-methoxyphenyl)-1,3,3-trimethyl-3,4-dihydro-1H-quinoxalin-2-one]",100
15,COc1ccc(F)cc1-c1ccc2c(c1COc1ccccc1)N(C)C(=O)C(C)(C)N2 [Compound 5-9],100
16,COc1ccc(F)cc1-c1ccc2c(c1CNc1ccccc1)N(C)C(=O)C(C)(C)N2 [Compound 5-14],100
17,CCN1C(=O)C(C)(C)Nc2ccc(-c3cc(F)ccc3OC)c(COC(=O)c3ccc(C)cc3)c21 [Compound 5-18],100
18,C=CCN1C(=O)C(C)(C)Nc2ccc(-c3cc(F)ccc3OC)c(COC(=O)c3ccc(C)cc3)c21 [Compound 5-19],100
19,COc1ccc(C(=O)OCc2c(-c3ccc(OC(=O)c4ccccc4C)cc3OC)ccc3c2N(C)C(=O)C(C)(C)N3)cc1 [Compound 5-21],100
20,COc1ccc([N+](=O)[O-])cc1OCc1c(-c2ccc(OC(=O)c3ccccc3C)cc2OC)ccc2c1N(C)C(=O)C(C)(C)N2 [Compound 5-22],99
21,COc1cc(OC(=O)c2ccccc2C)ccc1-c1ccc2c(c1COC(=O)c1cccc(F)c1)N(C)C(=O)C(C)(C)N2 [Compound 5-24],100

row,Structure (SMILES),inhibition at 10 µM [%]
1,Cc1ccc(F)cc1OCc1c(-c2ccccc2Cl)ccc2c1N(C)C(=O)C(C)(C)N2 [Compound 6-4],98
2,COc1ccccc1-c1ccc2c(c1COc1cc(F)ccc1C)N(C)C(=O)C(C)(C)N2 [Compound 6-8],98
3,CSc1ccccc1-c1ccc2c(c1COc1cc(F)ccc1C)N(C)C(=O)C(C)(C)N2 [Compound 6-10],100
4,COc1cc(F)ccc1-c1ccc2c(c1COc1cc(F)ccc1C)N(C)C(=O)C(C)(C)N2 [Compound 6-12],100
5,COc1ccc(Cl)cc1-c1ccc2c(c1COc1cc(F)ccc1C)N(C)C(=O)C(C)(C)N2 [Compound 6-15],100
6,COc1ccc(C(F)(F)F)cc1-c1ccc2c(c1COc1cc(F)ccc1C)N(C)C(=O)C(C)(C)N2 [Compound 6-19],100
7,COc1cccc(F)c1-c1ccc2c(c1COc1cc(F)ccc1C)N(C)C(=O)C(C)(C)N2 [Compound 6-23],98
8,"COc1ccc([N+](=O)[O-])cc1-c1ccc2c(c1COc1cc(F)ccc1C)N(C)C(=O)C(C)(C)N2 [Compound 6-27, 8-(5-fluoro-2-methylphenoxymethyl)-7-(2-methoxy-5-nitrophenyl)-1,3,3-trimethyl-3,4-dihydro-1H-quinoxalin-2-one]",100
9,COc1ccc(OC(=O)c2ccccc2)cc1-c1ccc2c(c1COc1cc(F)ccc1C)N(C)C(=O)C(C)(C)N2 [Compound 6-32],89
10,COc1ccc(C(F)(F)F)cc1-c1ccc2c3c1CN(c1ccccc1OC)CN3C(=O)C(C)(C)N2 [Compound 6-38],100
11,COc1cc(N)ccc1-c1ccc2c(c1COc1cc(F)ccc1C)N(C)C(=O)C(C)(C)N2 [Compound 8-2],100
12,"COc1ccc(CO)cc1-c1ccc2c(c1COc1cc(F)ccc1C)N(C)C(=O)C(C)(C)N2 [Compound 9-1, 8-(5-Fluoro-2-methylphenoxymethyl)-7-(5-hydroxymethyl-2-methoxyphenyl)-1,3,3-trimethyl-3,4-dihydro-1H-quinoxalin-2-one]",100
13,"COc1cc(O)ccc1-c1ccc2c(c1COc1cc(F)ccc1C)N(C)C(=O)C(C)(C)N2 [Compound 11, 8-(5-fluoro-2-methylphenoxymethyl)-7-(4-hydroxy-2-methoxyphenyl)-1,3,3-trimethyl-3,4-dihydro-1H-quinoxalin-2-one]",100
14,"COc1cc(O)ccc1-c1ccc2c(c1COC(=O)c1ccc(C)s1)N(C)C(=O)C(C)(C)N2 [Compound 13-2, 7-(4-Hydroxy-2-methoxyphenyl)-8-(5-methylthiophen-2-ylcarbonyloxymethyl)-1,3,3-trimethyl-3,4-dihydro-1H-quinoxalin-2-one]",91
15,COc1cc(OC(=O)c2ccccc2C)ccc1-c1ccc2c(c1COc1cc(F)ccc1C)N(C)C(=O)C(C)(C)N2 [Compound 14-2],100
16,COc1cc(OC(=O)c2ccccc2Cl)ccc1-c1ccc2c(c1COc1cc(F)ccc1C)N(C)C(=O)C(C)(C)N2 [Compound 14-4],100
17,COc1cc(OC(=O)c2ccoc2)ccc1-c1ccc2c(c1COc1cc(F)ccc1C)N(C)C(=O)C(C)(C)N2 [Compound 14-11],100
18,"COc1cc(NC(=O)c2ccncc2)ccc1-c1ccc2c(c1COc1cc(F)ccc1C)N(C)C(=O)C(C)(C)N2 [Compound 14-21, 8-(5-fluoro-2-methylphenoxymethyl)-7-[2-methoxy-4-(pyridin-4-ylcarbonylamino)phenyl]-1,3,3-trimethyl-3,4-dihydro-1H-quinoxalin-2-one]",100
19,COc1cc(NC(=O)c2ccccc2Cl)ccc1-c1ccc2c(c1COc1cc(F)ccc1C)N(C)C(=O)C(C)(C)N2 [Compound 14-22],100
20,COc1ccc(C(=O)Oc2ccc(-c3ccc4c(c3COc3cc(F)ccc3C)N(C)C(=O)C(C)(C)N4)c(OC)c2)cc1 [Compound 14-30],100
21,C=CC(=O)Oc1ccc(-c2ccc3c(c2COc2cc(F)ccc2C)N(C)C(=O)C(C)(C)N3)c(OC)c1 [Compound 14-33],100
